Blank lines part the entries; values can stand above or below the compound they belong to. The source made the active and inactive calls. No cut-off for these calls is given here.
Key:
Kasumi 1 [1] = assay: Growth inhibition on human Kasumi-1 cells measured upto 12 days by Cell Titer-Glo luminescent cell viability assay; type: functional; conditions: Kasumi 1, 288 h
[2] = Metabolic stability in mouse liver microsomes assessed as intrinsic clearance; type: ADME, Microsome; conditions: read-out: CLH
[3] = Metabolic stability in rat liver microsomes assessed as intrinsic clearance; type: ADME, Microsome; conditions: read-out: CLH
[4] = Metabolic stability in dog liver microsomes assessed as intrinsic clearance; type: ADME, Canis lupus familiaris, Microsome; conditions: read-out: CLH
[5] = Metabolic stability in human liver microsomes assessed as intrinsic clearance; type: ADME, Microsome; conditions: read-out: CLH
[6] = target: T1, Lysine-specific histone demethylase 1A (Homo sapiens, UniProt O60341)
[7] = target: T1, Lysine-specific histone demethylase 1A; remark: listed apart in the source
[8] = target: T1, Lysine-specific histone demethylase 1A; remark: listed apart in the source
Description: Inhibition of LSD1 in human MV4-11 cells assessed as induction of LY96 mRNA expression incubated for 16 hrs by chemiluminescent method

[9] = target: T1, Lysine-specific histone demethylase 1A; remark: listed apart in the source
[10] = target: T1, Lysine-specific histone demethylase 1A; remark: listed apart in the source
MOLM-13 = assay: Growth inhibition on human MOLM13 cells measured upto 12 days by Cell Titer-Glo luminescent cell viability assay; type: functional; conditions: MOLM-13, 288 h
[11] = target: T2, Amine oxidase [flavin-containing] B (Homo sapiens, UniProt P27338); assay: Inhibition of MAO-B (unknown origin)
T2 sequence (P27338 whole entry): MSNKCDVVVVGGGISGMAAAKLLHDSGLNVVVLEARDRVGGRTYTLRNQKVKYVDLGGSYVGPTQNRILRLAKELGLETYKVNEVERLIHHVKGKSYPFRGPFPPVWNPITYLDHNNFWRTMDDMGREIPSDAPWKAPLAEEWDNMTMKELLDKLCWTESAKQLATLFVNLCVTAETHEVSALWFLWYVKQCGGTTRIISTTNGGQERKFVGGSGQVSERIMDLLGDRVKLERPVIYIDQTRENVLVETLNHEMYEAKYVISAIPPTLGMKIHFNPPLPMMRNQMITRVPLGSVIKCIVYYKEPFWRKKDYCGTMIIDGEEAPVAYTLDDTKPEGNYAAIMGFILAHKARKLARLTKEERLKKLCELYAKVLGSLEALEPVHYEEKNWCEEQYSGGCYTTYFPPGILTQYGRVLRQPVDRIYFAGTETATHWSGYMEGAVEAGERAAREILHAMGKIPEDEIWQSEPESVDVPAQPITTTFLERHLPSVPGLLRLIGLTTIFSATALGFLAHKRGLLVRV

[12] = target: T3, Amine oxidase [flavin-containing] A (Homo sapiens, UniProt P21397); assay: Inhibition of MAO-A (unknown origin)
T3 sequence (P21397 whole entry): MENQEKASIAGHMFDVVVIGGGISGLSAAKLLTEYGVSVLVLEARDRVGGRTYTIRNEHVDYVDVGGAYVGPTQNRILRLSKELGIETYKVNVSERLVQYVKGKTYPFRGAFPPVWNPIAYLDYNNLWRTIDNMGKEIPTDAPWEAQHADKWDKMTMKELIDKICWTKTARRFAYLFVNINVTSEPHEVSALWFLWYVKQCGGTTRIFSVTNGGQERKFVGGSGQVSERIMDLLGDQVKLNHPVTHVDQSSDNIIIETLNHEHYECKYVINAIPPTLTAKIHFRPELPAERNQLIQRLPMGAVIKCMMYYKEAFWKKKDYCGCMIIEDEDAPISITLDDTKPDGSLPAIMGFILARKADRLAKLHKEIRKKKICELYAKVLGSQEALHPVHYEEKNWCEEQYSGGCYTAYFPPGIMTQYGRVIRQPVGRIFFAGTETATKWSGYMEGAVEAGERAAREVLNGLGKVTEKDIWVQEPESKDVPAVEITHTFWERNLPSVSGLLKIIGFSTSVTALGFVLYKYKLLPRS

MV4-11 = assay: Growth inhibition on human MV4-11 cells measured upto 12 days by Cell Titer-Glo luminescent cell viability assay; type: functional; conditions: MV4-11, 288 h
NOMO-1 = assay: Growth inhibition on human NOMO1 cells measured upto 12 days by Cell Titer-Glo luminescent cell viability assay; type: functional; conditions: NOMO-1, 288 h
OCI-AML-3 = assay: Growth inhibition on human OCI-AML3 cells measured upto 12 days by Cell Titer-Glo luminescent cell viability assay; type: functional; conditions: OCI-AML-3, 288 h
OCI-AML-5 = assay: Growth inhibition on human OCI-AML5 cells measured upto 12 days by Cell Titer-Glo luminescent cell viability assay; type: functional; conditions: OCI-AML-5, 288 h
SET-2 = assay: Growth inhibition on human SET2 cells measured upto 12 days by Cell Titer-Glo luminescent cell viability assay; type: functional; conditions: SET-2, 288 h
SKM-1 = assay: Growth inhibition on human SKM1 cells measured upto 12 days by Cell Titer-Glo luminescent cell viability assay; type: functional; conditions: SKM-1, 288 h
[13] = Clearance in mouse at 1 mg/kg, iv; type: ADME, organism-based; conditions: in vivo
[14] = Volume of distribution at steady state in mouse at 1 mg/kg, iv; type: ADME, organism-based; conditions: in vivo, read-out: Vdss
[15] = Half life in mouse at 1 mg/kg, iv; type: ADME, organism-based; conditions: in vivo
[16] = Cmax in mouse at 5 mg/kg, po; type: ADME, organism-based; design: dose 5 mg/kg, route oral; conditions: in vivo
[17] = AUC (0 to infinity) in mouse at 5 mg/kg, po; type: ADME, organism-based; design: dose 5 mg/kg, time infinity, route oral; conditions: in vivo
[18] = Oral bioavailability in mouse at 5 mg/kg; type: ADME, organism-based; conditions: in vivo
Kasumi 1 [19] = assay: Antitumor activity against human Kasumi-1 cells xenografted in oral dosed CB17 SCID mouse assessed as tumor growth inhibition administered for 14 days; type: functional, organism-based
[20] = Toxicity in CB17 SCID mouse xenografted with human Kasumi-1 cells assessed body weight loss at 1.5 mg/kg, po administered for 14 days; type: organism-based; conditions: in vivo, 336 h
[21] = Toxicity in CB17 SCID mouse xenografted with human Kasumi-1 cells assessed body weight loss at 0.5 mg/kg, po administered for 14 days; type: organism-based; conditions: in vivo, 336 h
Mus musculus = assay: Induction of LY96 mRNA in CB17-scid mouse xenografted with human Kasumi-1 cells at 0.5 and 1.5 mg/kg, po administered for 14 days; type: functional, organism-based
[22] = Protein binding in plasma (unknown origin) assessed as parent compound remaining; type: ADME, cell-free

microsomal CLint [2]: 85 µL/min/mg
microsomal CLint [3]: 43 µL/min/mg
microsomal CLint [4]: 283 µL/min/mg
microsomal CLint [5]: 49 µL/min/mg
Compound: CC/C(=C\c1ccccc1)[C@@H]1C[C@H]1NC1CC2(C1)CN(C1COC1)C2
GI50 (Kasumi 1 [1]): 1 nM

Kinact [6]: 0.39 min⁻¹
Ratio [7]: 680 M⁻¹ s⁻¹
EC50 [8]: 54 nM
IC50 [9]: 212 nM
Ki [10]: 9.6 nM
Compound: O=C(O)c1ccc(CN2CCC(CN[C@@H]3C[C@H]3c3ccccc3)CC2)cc1 [GSK2879552]
GI50 (Kasumi 1 [1]): 20 nM

microsomal CLint [2]: 28 µL/min/mg
microsomal CLint [3]: 19 µL/min/mg
microsomal CLint [4]: 39 µL/min/mg
microsomal CLint [5]: 10 µL/min/mg
EC50 [8]: 5 nM
IC50 [9]: < 3 nM
Compound: CC/C(=C\c1ccccc1)[C@@H]1C[C@H]1NC1CC2(CCN(CCO)CC2)C1
GI50 (Kasumi 1 [1]): 1 nM

microsomal CLint [2]: 76 µL/min/mg
microsomal CLint [3]: 48 µL/min/mg
microsomal CLint [4]: 87 µL/min/mg
microsomal CLint [5]: 18 µL/min/mg
Compound: CC/C(=C\c1ccccc1)[C@@H]1C[C@H]1NC1CC2(C1)CN(C(C)=O)C2
GI50 (Kasumi 1 [1]): 41 nM

EC50 [8]: 6 nM
IC50 [9]: < 1.8 nM
Compound: CC/C(=C\c1ccccc1)[C@@H]1C[C@H]1N[C@H]1CC[C@H](NCCO)CC1 (racemic)

microsomal CLint [2]: 46 µL/min/mg
microsomal CLint [3]: 27 µL/min/mg
microsomal CLint [4]: 106 µL/min/mg
microsomal CLint [5]: 41 µL/min/mg
EC50 [8]: 4 nM
IC50 [9]: < 2.6 nM
Compound: CC/C(=C\c1ccccc1)[C@@H]1C[C@H]1NC1CCN(CCO)CC1
GI50 (Kasumi 1 [1]): 3 nM

microsomal CLint [2]: 812 µL/min/mg
microsomal CLint [3]: 80 µL/min/mg
microsomal CLint [4]: 105 µL/min/mg
microsomal CLint [5]: 67 µL/min/mg
Compound: CC/C(=C\c1ccccc1)[C@@H]1C[C@H]1NC1CC2(C1)CN(S(C)(=O)=O)C2
GI50 (Kasumi 1 [1]): 17 nM

IC50 [9]: < 2.8 nM
Compound: C/C(=C\c1ccccc1)[C@@H]1C[C@H]1NC1CCNCC1 (racemic)

microsomal CLint [2]: 17 µL/min/mg
microsomal CLint [3]: 19 µL/min/mg
microsomal CLint [4]: 14 µL/min/mg
microsomal CLint [5]: 11 µL/min/mg
Compound: CC/C(=C\c1ccccc1)[C@@H]1C[C@H]1NC1CC2(CNC2)C1
GI50 (Kasumi 1 [1]): 11 nM

GI50 (MOLM-13): 893 nM
IC50 [11]: > 80000 nM
IC50 [12]: > 80000 nM
microsomal CLint [2]: 25 µL/min/mg
microsomal CLint [3]: 15 µL/min/mg
microsomal CLint [4]: 41 µL/min/mg
microsomal CLint [5]: 9 µL/min/mg
GI50 (MV4-11): 5 nM
GI50 (OCI-AML-3): 271 nM
GI50 (OCI-AML-5): 332 nM
GI50 (SKM-1): 14 nM
Kinact [6]: 0.38 min⁻¹
Ratio [7]: 1e+06 M⁻¹ s⁻¹
clearance [13]: 162 mL/min/kg
Vd [14]: 118 L/kg
half-life [15]: 25.3 h
Cmax [16]: 40 ng/mL
AUC(0-inf) [17]: 189 ng·h/mL
bioavailability [18]: 59%
EC50 [8]: 2 nM
IC50 [9]: < 3 nM
Ki [10]: 6.1 nM
Compound: CC/C(=C\c1ccccc1)[C@@H]1C[C@H]1NC1CC2(C1)CN(CCO)C2
GI50 (Kasumi 1 [1]): 1 nM
GI50 (NOMO-1): 78 nM
GI50 (SET-2): 37 nM
TGI (Kasumi 1 [19]): Dose-dependent effect
Activity [20]: <= 5%
Activity [21]: Non-Toxic
Activity (Mus musculus): Active

microsomal CLint [2]: 883 µL/min/mg
microsomal CLint [3]: 175 µL/min/mg
microsomal CLint [4]: 480 µL/min/mg
microsomal CLint [5]: 133 µL/min/mg
EC50 [8]: 7 nM
IC50 [9]: < 3 nM
Compound: CC/C(=C\c1ccccc1)[C@@H]1C[C@H]1NC1CC2(C1)CN(CC(F)F)C2
GI50 (Kasumi 1 [1]): 110 nM

fraction unbound [22]: ≤ 0.05
Compound: C(=C\C1CC1NCC1CCNCC1)/c1ccccc1 (stereo not given)
